Laboratory results: ChEMBL document CHEMBL1201862, “PubChem BioAssay data set” (2004)
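In this assay, cells in 96-well plates receive the compound at five concentrations for 48 hours. Endpoints are linearly interpolated between the surrounding concentrations. GI50 is the concentration that inhibits growth by half.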 Activity calls are given as the source filed them. Rule as the data show it: active = GI50 up to about 1.1 µM and inactive = higher. Residues, ends and D or L forms follow the SMILES beside them. *: point of attachment. Cbz = O=C(OCc1ccccc1)*

Legend:
Assay in all cases: NCI anticancer screen, dose series, 48 h
[1] = test system: MDA-MB-435
[2] = test system: SK-MEL-2
[3] = test system: NCI-H522
[4] = test system: T47D
[5] = test system: HL-60
[6] = test system: LOX IMVI
[7] = test system: DU-145
[8] = test system: OVCAR-3
[9] = test system: UACC-257
[10] = test system: SNB-75
[11] = test system: MDA-MB-231
[12] = test system: SF-295
[13] = test system: SN12C
[14] = test system: NCI/ADR-RES
[15] = test system: BT-549

Row | Structure (SMILES) | GI50 [1] | GI50 [2] | GI50 [3] | GI50 [4] | GI50 [5] | GI50 [6] | GI50 [7] | GI50 [8] | GI50 [9] | GI50 [10] | GI50 [11] | GI50 [12] | GI50 [13] | GI50 [14] | GI50 [15]
1 | O=C1Nc2ccccc2C1Cc1ccccc1 (stereo not drawn) | > 100 µM (inactive) | > 100 µM (inactive) | > 100 µM (inactive) | 88.7 µM (inactive) | > 100 µM (inactive) | > 100 µM (inactive) | > 100 µM (inactive) | > 100 µM (inactive) | > 100 µM (inactive) | 0.296 µM (active) | – | – | – | – | –
2 | CC1C2(C)OC(=N)C(C#N)(C(C)O2)C1(C#N)C#N (stereo not drawn) | – | 19.9 µM (inactive) | – | 30.1 µM (inactive) | 14.1 µM (inactive) | 19.5 µM (inactive) | 25.7 µM (inactive) | 24.5 µM (inactive) | 20.2 µM (inactive) | > 100 µM (inactive) | 19.9 µM (inactive) | 90.2 µM (inactive) | 16.3 µM (inactive) | 77.1 µM (inactive) | 31.6 µM (inactive)
3 | CCN1CCN=c2c3cc(OC)ccc3n3cnc4ccc1c2c43 | 0.197 µM (active) | 0.238 µM (active) | 0.00865 µM (active) | 0.39 µM (active) | 0.206 µM (active) | 0.154 µM (active) | 0.483 µM (active) | 0.226 µM (active) | 0.553 µM (active) | 0.456 µM (active) | 0.275 µM (active) | 0.26 µM (active) | 0.142 µM (active) | 0.145 µM (active) | –
4 | N=C(N)c1ccc(/C=C/c2ccc(C(=N)N)cc2)cc1 | > 100 µM (inactive) | 27.1 µM (inactive) | 63.2 µM (inactive) | > 100 µM (inactive) | – | > 100 µM (inactive) | > 100 µM (inactive) | > 100 µM (inactive) | 65.9 µM (inactive) | 32.1 µM (inactive) | > 100 µM (inactive) | 34.4 µM (inactive) | 22.7 µM (inactive) | 77.3 µM (inactive) | > 100 µM (inactive)
5 | COc1ccc2oc(=O)c(-c3csc(C)n3)cc2c1 | > 100 µM (inactive) | 41.4 µM (inactive) | – | – | > 100 µM (inactive) | > 100 µM (inactive) | > 100 µM (inactive) | – | > 100 µM (inactive) | 30.5 µM (inactive) | 24.7 µM (inactive) | 18.6 µM (inactive) | > 100 µM (inactive) | – | 15.8 µM (inactive)
6 | COc1ccc(/C=C2/CCS(=O)(=O)c3ccc(C)cc3C2=O)cc1OC | 12.5 µM (inactive) | 20 µM (inactive) | – | 13.2 µM (inactive) | 10.4 µM (inactive) | 8.11 µM (inactive) | 3.73 µM (inactive) | 28.1 µM (inactive) | 11.9 µM (inactive) | 12 µM (inactive) | 12.8 µM (inactive) | 14.7 µM (inactive) | 13.2 µM (inactive) | 11.8 µM (inactive) | 9.27 µM (inactive)
7 | COc1ccc(OC)c2c1C=CC(Br)=CC2 | 0.239 µM (active) | 0.106 µM (active) | 0.223 µM (active) | 0.192 µM (active) | – | 0.158 µM (active) | 0.975 µM (active) | 0.276 µM (active) | 0.255 µM (active) | – | 0.285 µM (active) | 0.16 µM (active) | 0.372 µM (active) | 0.296 µM (active) | 0.303 µM (active)
8 | CC(Cc1ccccc1)N(C)Cc1nc(C2CCC([N+](=O)[O-])O2)no1 (stereo not drawn) | 6.82 µM (inactive) | – | – | 19.1 µM (inactive) | 6.49 µM (inactive) | 3.19 µM (inactive) | 12.4 µM (inactive) | – | 7.31 µM (inactive) | 10.3 µM (inactive) | 2.47 µM (inactive) | 8.79 µM (inactive) | 2.51 µM (inactive) | 11.9 µM (inactive) | –
9 | CCOC(=O)CNc1nc(=O)c2c(=O)oc(Cl)cc2o1 | 15.7 µM (inactive) | 17.2 µM (inactive) | 2.7 µM (inactive) | 18.9 µM (inactive) | – | 10.5 µM (inactive) | 29 µM (inactive) | 12.9 µM (inactive) | 17.5 µM (inactive) | 11 µM (inactive) | 21.6 µM (inactive) | 25 µM (inactive) | 18.4 µM (inactive) | 21.4 µM (inactive) | –
10 | Cc1ccc(S(=O)(=O)N(CC(O)COc2ccccc2)c2c(F)c(F)c(F)c(F)c2F)cc1 (stereo not drawn) | 16.4 µM (inactive) | 16.4 µM (inactive) | – | 18 µM (inactive) | 6.32 µM (inactive) | 13.9 µM (inactive) | 22.3 µM (inactive) | 17.3 µM (inactive) | – | 16.3 µM (inactive) | 12.8 µM (inactive) | 17.1 µM (inactive) | 16.6 µM (inactive) | 17 µM (inactive) | 13.5 µM (inactive)
11 | CCOc1ccc2ccccc2c1NC1=NCCO1 | 25.8 µM (inactive) | – | – | 29.7 µM (inactive) | 19.9 µM (inactive) | – | > 100 µM (inactive) | – | 34.6 µM (inactive) | 34.6 µM (inactive) | > 100 µM (inactive) | 19.1 µM (inactive) | > 100 µM (inactive) | 70.3 µM (inactive) | –
12 | CCN(CC)c1c(C(C)(C)C)c(=O)n2ccsc2c1OC(C)=O | 18 µM (inactive) | 17.1 µM (inactive) | 13.4 µM (inactive) | – | 29.4 µM (inactive) | 17.4 µM (inactive) | 19.9 µM (inactive) | 17.1 µM (inactive) | 16.5 µM (inactive) | 15 µM (inactive) | 17.8 µM (inactive) | 17.1 µM (inactive) | 18.2 µM (inactive) | 13 µM (inactive) | 15.5 µM (inactive)
13 | Cc1ccc(Nc2nc(N)nc3c2ncn3C2OC(CO)C(O)C2O)cc1 (stereo not drawn) | > 100 µM (inactive) | > 100 µM (inactive) | > 100 µM (inactive) | > 100 µM (inactive) | > 100 µM (inactive) | > 100 µM (inactive) | > 100 µM (inactive) | > 100 µM (inactive) | > 100 µM (inactive) | > 100 µM (inactive) | 98.9 µM (inactive) | > 100 µM (inactive) | > 100 µM (inactive) | > 100 µM (inactive) | –
14 | O=c1c2ccc(Cl)cc2oc2c(CNc3ccc(S(=O)(=O)Nc4nccs4)cc3)cccc12 | > 100 µM (inactive) | > 100 µM (inactive) | > 100 µM (inactive) | > 100 µM (inactive) | – | > 100 µM (inactive) | > 100 µM (inactive) | > 100 µM (inactive) | > 100 µM (inactive) | – | 98.6 µM (inactive) | > 100 µM (inactive) | > 100 µM (inactive) | > 100 µM (inactive) | > 100 µM (inactive)
15 | O=S(=O)(O)c1cccc2c(/N=N/c3c(O)ccc4ccccc34)cccc12 | > 100 µM (inactive) | > 100 µM (inactive) | > 100 µM (inactive) | > 100 µM (inactive) | – | > 100 µM (inactive) | > 100 µM (inactive) | > 100 µM (inactive) | > 100 µM (inactive) | > 100 µM (inactive) | > 100 µM (inactive) | > 100 µM (inactive) | > 100 µM (inactive) | > 100 µM (inactive) | > 100 µM (inactive)
16 | CC(NC(=O)C(NC(=O)OCc1ccccc1)C(C)C)C(=O)NCC(=O)O (stereo not drawn) (Cbz-Val-Ala-Gly-OH; configuration not given here) | > 100 µM (inactive) | > 100 µM (inactive) | > 100 µM (inactive) | > 100 µM (inactive) | – | – | > 100 µM (inactive) | > 100 µM (inactive) | > 100 µM (inactive) | – | > 100 µM (inactive) | > 100 µM (inactive) | > 100 µM (inactive) | > 100 µM (inactive) | > 100 µM (inactive)
